Key:
Type in all cases: physicochemical
[1] = Water solubility of crystalline forms; conditions: for Water solubility: Form B value according to literature findings and experimental data, Form M at the same conditions
[2] = Moisture sorption analysis (Dynamic Vapour Sorption); conditions: result in words
Experimental: Water Vapour Sorption isotherms were obtained using a Dynamic Vapour Sorption apparatus (model: DVS—Advantage, supplier: Surface Measurement Systems Limited). The DVS apparatus consists of an ultra-microbalance housed inside a temperature-controlled cabinet. The sample was placed into a DVS sample pan under a stream of nitrogen (200 sccm) at 25° C. The humidity was increased ramping in 10% RH (relative humidity) steps from close to 0% RH to 90% RH (sorption phase). Next the humidity was decreased in a similar fashion for the desorption phase. The sample was held at each RH step for mass stabilization (dm/dt 0.02%/min) but not less than 10 minutes. Two cycles of sorption and desorption were investigated.

[3] = Dissolution studies of tablets, paddle method; conditions: at 30 minutes
Experimental: Dissolution studies were performed using a Hanson SR8PLUS dissolution apparatus, according to European Pharmacopoeia apparatus, paddle method. The samples were tested in 900 mL pH 6.8 with 0.3% SLS at 37.0° C.+/−0.5° C. and the paddle rotation speed was set at 75 rpm. Dissolution study was conducted for 60 min and samples were analyzed using HPLC method.

Structure (SMILES) | Water solubility [1] [µg/mL] | Water solubility of Form M relative to Form B (times greater) ([1]; same conditions) [times] | Hygroscopicity [2] | Higher dissolution rate compared with prior art Form B [3] | Stability with respect to humidity [2]
CCOc1cc([C@@H](CS(C)(=O)=O)N2C(=O)c3cccc(NC(C)=O)c3C2=O)ccc1OC [Form B, N-[2-[(1S)-1-(3-ethoxy-4-methoxyphenyl)-2-(methylsulfonyl)ethyl]-1,3-dioxo-2,3-dihydro-1H-isoindol-4-yl]acetamide, reference compound] | 7 to 12 | – | – | – | –
CCOc1cc([C@@H](CS(C)(=O)=O)N2C(=O)c3cccc(NC(C)=O)c3C2=O)ccc1OC [Form M, N-[2-[(1S)-1-(3-ethoxy-4-methoxyphenyl)-2-(methylsulfonyl)ethyl]-1,3-dioxo-2,3-dihydro-1H-isoindol-4-yl]acetamide] | 29 | ~3 | substantially non-hygroscopic | – | –
CCOc1cc([C@@H](CS(C)(=O)=O)N2C(=O)c3cccc(NC(C)=O)c3C2=O)ccc1OC [Form N, N-[2-[(1S)-1-(3-ethoxy-4-methoxyphenyl)-2-(methylsulfonyl)ethyl]-1,3-dioxo-2,3-dihydro-1H-isoindol-4-yl]acetamide] | – | – | substantially non-hygroscopic | more than 50% | stable with respect to humidity

Reference: patent US10774042B2, “Crystalline forms of apremilast” (ZAKLADY FARMACEUTYCZNE POLPHARMA SA, priority 2016, dated 2020)
